# According to ChEMBL document CHEMBL5608163, “Structure modification of anoplin for fighting resistant bacteria” (Eur J Med Chem, 2024):
# Square brackets hold non-standard residues; d marks the D form. Peptide text beside a SMILES is read from it. * marks the point of attachment. Pentadecanoyl = CCCCCCCCCCCCCCC(=O)*; NMeR = CN[C@@H](CCCNC(=N)N)C(=O)O; Tridecanoyl = CCCCCCCCCCCCC(=O)*; Undecanoyl = CCCCCCCCCCC(=O)*; NMeK = CN[C@@H](CCCCN)C(=O)O
# Experiments:
# [1] = Hemolytic activity in human RBC assessed as hemolysis; type: toxicity, cell-based, Erythrocyte; conditions: red blood cells
# Staphylococcus aureus [2] = experiment: Antibacterial activity against Staphylococcus aureus ATCC 25923 assessed as reduction in bacterial growth incubated for 24 hrs by serial dilution method; type: functional
# Escherichia coli [3] = experiment: Antibacterial activity against Escherichia coli ATCC 25922 assessed as bacterial growth inhibition measured after 48 hrs by resazurin assay; type: functional
# Staphylococcus aureus [4] = experiment: Antibacterial activity against Staphylococcus aureus; type: functional
# Escherichia coli [5] = experiment: Antibacterial activity against Escherichia coli; type: functional
# [6] = system: Mycolicibacterium smegmatis; experiment: Antimycobacterial activity against Mycobacterium smegmatis mc2 155 assessed as reduction in bacterial cell growth incubated for 24 hrs by resazurin dye based broth microdilution method; type: functional
# Bacillus subtilis [7] = experiment: Antimicrobial activity against Bacillus subtilis assessed as microbial growth inhibition incubated for 24 hrs by broth micro-dilution method; type: functional
# Escherichia coli [8] = experiment: Antibacterial acitivity against Escherichia coli DH5a assessed as bacterial growth inhibition incubated for 24 hrs by broth micro-dilution method; type: functional
# Zymomonas mobilis = experiment: Antibacterial activity against Zymomonas mobilis ATCC 10988 assessed as reduction in bacterial growth incubated for 24 hrs by broth micro-dilution method; type: functional
# [9] = Hemolytic activity against human Red blood cells assessed as cell lysis; type: toxicity, cell-based, Erythrocyte
# [10] = Hemolytic activity in mouse Red blood cells incubated for 1 hr by microplate reader assay; type: toxicity, cell-based, Erythrocyte; conditions: red blood cells
# Staphylococcus aureus [11] = experiment: Antibacterial activity against Staphylococcus aureus ATCC 25923 assessed as reduction in bacterial cell growth measured for 18 hrs by Mueller-Hinton broth based two-fold serial dilution method; type: functional
# Bacillus subtilis [12] = experiment: Antibacterial activity against Bacillus subtilis ATCC 23857 assessed as reduction in bacterial cell growth measured for 18 hrs by Mueller-Hinton broth based two-fold serial dilution method; type: functional
# Escherichia coli [13] = experiment: Antibacterial activity against Escherichia coli ATCC 25922 assessed as reduction in bacterial cell growth measured for 18 hrs by Mueller-Hinton broth based two-fold serial dilution method; type: functional
# Pseudomonas aeruginosa = experiment: Antibacterial activity against Pseudomonas aeruginosa ATCC 27853 assessed as reduction in bacterial cell growth measured for 18 hrs by Mueller-Hinton broth based two-fold serial dilution method; type: functional
# Klebsiella pneumoniae = experiment: Antibacterial activity against Klebsiella pneumoniae ATCC 700603 assessed as reduction in bacterial cell growth measured for 18 hrs by Mueller-Hinton broth based two-fold serial dilution method; type: functional
# [14] = Hemolytic activity in mouse erythrocyte incubated for 1 hr by microplate reader analysis; type: toxicity, cell-based; conditions: erythrocytes
smiles,measurement,setting,value
CC[C@H](C)[C@H](NC(=O)[C@H](CCCNC(=N)N)NC(=O)[C@H](CCCCN)NC(=O)[C@H](CC(C)C)NC(=O)[C@H](CC(C)C)NC(=O)CN)C(=O)N[C@@H](CCCCN)C(=O)N[C@@H](Cc1ccccc1)C(=O)N[C@@H](CC(C)C)C(=O)N[C@@H](CC(C)C)C(N)=O (H-GLLKRIKFLL-NH2),HC50,[1],326 µM
same,MIC,Staphylococcus aureus [2],6.7 µM
same,MIC,Escherichia coli [3],6.7 µM
CC[C@H](C)[C@H](NC(=O)[C@H](CCCCN)NC(=O)[C@@H](NC(=O)[C@H](CCCNC(=N)N)NC(=O)[C@H](CCCCN)NC(=O)[C@H](CC(C)C)NC(=O)[C@H](CC(C)C)NC(=O)CN)[C@@H](C)CC)C(=O)N[C@@H](CC(C)C)C(=O)N[C@@H](CC(C)C)C(N)=O (H-GLLKRIKILL-NH2),HC50,[1],81.8 µM
same,MIC,Staphylococcus aureus [2],12 µM
same,MIC,Escherichia coli [3],7.7 µM
CC[C@H](C)[C@H](NC(=O)[C@H](CCCNC(=N)N)NC(=O)[C@H](CCCCN)NC(=O)[C@H](CC(C)C)NC(=O)[C@H](CC(C)C)NC(=O)CN)C(=O)N[C@@H](CCCCN)C(=O)N[C@@H](CC(C)C)C(=O)N[C@@H](CC(C)C)C(=O)N[C@@H](CC(C)C)C(N)=O (H-GLLKRIKLLL-NH2),HC50,[1],102 µM
same,MIC,Staphylococcus aureus [2],6 µM
same,MIC,Escherichia coli [3],11.2 µM
CC[C@H](C)[C@H](NC(=O)[C@H](CCCNC(=N)N)NC(=O)[C@H](CCCCN)NC(=O)[C@H](CC(C)C)NC(=O)[C@H](CC(C)C)NC(=O)CN)C(=O)N[C@@H](CCCCN)C(=O)N[C@@H](CC(N)=O)C(=O)N[C@@H](CC(C)C)C(=O)N[C@@H](CC(C)C)C(N)=O (H-GLLKRIKNLL-NH2),HC50,[1],79.2 µM
same,MIC,Staphylococcus aureus [2],10.3 µM
same,MIC,Escherichia coli [3],18.9 µM
CC[C@H](C)[C@H](NC(=O)[C@H](CCCNC(=N)N)NC(=O)[C@H](CCCCN)NC(=O)[C@H](CC(C)C)NC(=O)[C@H](CC(C)C)NC(=O)CN)C(=O)N[C@@H](CCCCN)C(=O)N[C@H](C(=O)N[C@@H](CC(C)C)C(=O)N[C@@H](CC(C)C)C(N)=O)C(C)C (H-GLLKRIKVLL-NH2),HC50,[1],69.5 µM
same,MIC,Staphylococcus aureus [2],19.1 µM
same,MIC,Escherichia coli [3],19.1 µM
CC[C@H](C)[C@H](NC(=O)[C@H](CCCNC(=N)N)NC(=O)[C@H](CCCCN)NC(=O)[C@H](CC(C)C)NC(=O)[C@H](CC(C)C)NC(=O)CN)C(=O)N[C@@H](CCCCN)C(=O)N[C@@H](Cc1c[nH]c2ccccc12)C(=O)N[C@@H](CC(C)C)C(=O)N[C@@H](CC(C)C)C(N)=O (H-GLLKRIKWLL-NH2),HC50,[1],500 µM
same,MIC,Staphylococcus aureus [2],3.2 µM
same,MIC,Escherichia coli [3],6.5 µM
CC[C@H](C)[C@H](NC(=O)[C@@H](NC(=O)[C@H](CCCCN)NC(=O)[C@H](CC(C)C)NC(=O)[C@H](CC(C)C)NC(=O)CN)C(C)C)C(=O)N[C@@H](CCCCN)C(=O)N[C@H](C(=O)N[C@@H](CC(C)C)C(=O)N[C@@H](CC(C)C)C(N)=O)C(C)C (H-GLLKVIKVLL-NH2),HC50,[1],190 µM
same,MIC,Staphylococcus aureus [4],12.8 µM
same,MIC,Escherichia coli [5],25.6 µM
CC[C@H](C)[C@H](NC(=O)[C@H](Cc1ccccc1)NC(=O)[C@H](CCCCN)NC(=O)[C@H](CC(C)C)NC(=O)[C@H](CC(C)C)NC(=O)[C@@H](N)CCCCN)C(=O)N[C@@H](CCCCN)C(=O)N[C@@H](CCCCN)C(=O)N[C@@H](CC(C)C)C(=O)N[C@@H](CC(C)C)C(N)=O (H-KLLKFIKKLL-NH2),MIC,[6],13.3 µM
same,MIC,Bacillus subtilis [7],35.6 µM
same,MIC,Escherichia coli [8],322 µM
same,MIC,Zymomonas mobilis,8.9 µM
same,HC50,[9],> 403 µM
CC[C@H](C)[C@H](NC(=O)[C@H](Cc1ccccc1)NC(=O)[C@H](CCCCN)NC(=O)[C@H](CC(C)C)NC(=O)[C@H](CC(C)C)NC(=O)[C@@H](N)CCCCN)C(=O)N[C@@H](CCCCN)C(=O)N[C@H](C(=O)N[C@@H](CC(C)C)C(=O)N[C@@H](CC(C)C)C(N)=O)[C@@H](C)O (H-KLLKFIKTLL-NH2),HC50,[1],295 µM
same,MIC,Staphylococcus aureus [4],5.8 µM
same,MIC,Escherichia coli [5],2.5 µM
CC[C@H](C)[C@H](NC(=O)[C@H](CCCNC(=N)N)NC(=O)[C@H](CCCCN)NC(=O)[C@H](CC(C)C)NC(=O)[C@H](CC(C)C)NC(=O)[C@@H](N)CCCCN)C(=O)N[C@@H](CCCCN)C(=O)N[C@@H](CCCCN)C(=O)N[C@@H](CC(C)C)C(=O)N[C@@H](CC(C)C)C(N)=O (H-KLLKRIKKLL-NH2),HC50,[1],193 µM
same,MIC,Staphylococcus aureus [4],22.4 µM
same,MIC,Escherichia coli [5],29.6 µM
CC[C@H](C)[C@H](NC(=O)[C@H](CCCNC(=N)N)NC(=O)[C@H](CCCCN)NC(=O)[C@H](CC(C)C)NC(=O)[C@H](CC(C)C)NC(=O)[C@@H](N)CCCCN)C(=O)N[C@@H](CCCCN)C(=O)N[C@H](C(=O)N[C@@H](CC(C)C)C(=O)N[C@@H](CC(C)C)C(N)=O)[C@@H](C)O (H-KLLKRIKTLL-NH2),HC50,[1],29.3 µM
same,MIC,Staphylococcus aureus [4],> 19.6 µM
same,MIC,Escherichia coli [5],19.6 µM
CC[C@H](C)[C@H](NC(=O)[C@@H](NC(=O)[C@H](CCCCN)NC(=O)[C@H](CC(C)C)NC(=O)[C@H](CC(C)C)NC(=O)[C@@H](N)CCCCN)C(C)C)C(=O)N[C@@H](CCCCN)C(=O)N[C@@H](CCCCN)C(=O)N[C@@H](CC(C)C)C(=O)N[C@@H](CC(C)C)C(N)=O (H-KLLKVIKKLL-NH2),MIC,Staphylococcus aureus [4],7.5 µM
same,MIC,Escherichia coli [5],5 µM
CC[C@H](C)[C@H](NC(=O)[C@H](Cc1ccccc1)NC(=O)[C@H](CCCCN)NC(=O)[C@H](CC(C)C)NC(=O)[C@H](CC(C)C)NC(=O)[C@@H](N)CCCNC(=N)N)C(=O)N[C@@H](CCCCN)C(=O)N[C@@H](CCCCN)C(=O)N[C@@H](CC(C)C)C(=O)N[C@@H](CC(C)C)C(N)=O (H-RLLKFIKKLL-NH2),MIC,[6],15.8 µM
same,MIC,Bacillus subtilis [7],31.5 µM
same,MIC,Escherichia coli [8],315 µM
same,MIC,Zymomonas mobilis,7.9 µM
same,HC50,[9],> 394 µM
CCCCCCCCCCCCCCC(=O)NCC(=O)N[C@@H](CC(C)C)C(=O)N[C@@H](CC(C)C)C(=O)N(C)[C@@H](CCCCN)C(=O)N[C@@H](CCCNC(=N)N)C(=O)N[C@H](C(=O)N(C)[C@@H](CCCCN)C(=O)N[C@H](C(=O)N[C@@H](CC(C)C)C(=O)N[C@@H](CC(C)C)C(N)=O)[C@@H](C)O)[C@@H](C)CC (Pentadecanoyl-GLL[NMeK]RI[NMeK]TLL-NH2),HC50 at 1 h,[10],64 µM
same,MIC,Staphylococcus aureus [11],8 µM
same,MIC,Bacillus subtilis [12],8 µM
same,MIC,Escherichia coli [13],16 µM
same,MIC,Pseudomonas aeruginosa,16 µM
same,MIC,Klebsiella pneumoniae,32 µM
same,HC50 at 1 h,[14],64 µM
CCCCCCCCCCCCC(=O)NCC(=O)N[C@@H](CC(C)C)C(=O)N[C@@H](CC(C)C)C(=O)N[C@@H](CCCCN)C(=O)N(C)[C@@H](CCCNC(=N)N)C(=O)N[C@H](C(=O)N(C)[C@@H](CCCCN)C(=O)N[C@H](C(=O)N[C@@H](CC(C)C)C(=O)N[C@@H](CC(C)C)C(N)=O)[C@@H](C)O)[C@@H](C)CC (Tridecanoyl-GLLK[NMeR]I[NMeK]TLL-NH2),HC50 at 1 h,[10],64 µM
same,MIC,Staphylococcus aureus [11],8 µM
same,MIC,Bacillus subtilis [12],4 µM
same,MIC,Escherichia coli [13],8 µM
same,MIC,Pseudomonas aeruginosa,8 µM
same,MIC,Klebsiella pneumoniae,32 µM
same,HC50 at 1 h,[14],64 µM
CCCCCCCCCCCCC(=O)NCC(=O)N[C@@H](CC(C)C)C(=O)N[C@@H](CC(C)C)C(=O)N(C)[C@@H](CCCCN)C(=O)N[C@@H](CCCNC(=N)N)C(=O)N[C@H](C(=O)N(C)[C@@H](CCCCN)C(=O)N[C@H](C(=O)N[C@@H](CC(C)C)C(=O)N[C@@H](CC(C)C)C(N)=O)[C@@H](C)O)[C@@H](C)CC (Tridecanoyl-GLL[NMeK]RI[NMeK]TLL-NH2),HC50 at 1 h,[10],64 µM
same,MIC,Staphylococcus aureus [11],8 µM
same,MIC,Bacillus subtilis [12],4 µM
same,MIC,Escherichia coli [13],16 µM
same,MIC,Pseudomonas aeruginosa,8 µM
same,MIC,Klebsiella pneumoniae,64 µM
same,HC50 at 1 h,[14],64 µM
CCCCCCCCCCC(=O)NCC(=O)N[C@@H](CC(C)C)C(=O)N[C@@H](CC(C)C)C(=O)N[C@@H](CCCCN)C(=O)N(C)[C@@H](CCCNC(=N)N)C(=O)N[C@H](C(=O)N(C)[C@@H](CCCCN)C(=O)N[C@H](C(=O)N[C@@H](CC(C)C)C(=O)N[C@@H](CC(C)C)C(N)=O)[C@@H](C)O)[C@@H](C)CC (Undecanoyl-GLLK[NMeR]I[NMeK]TLL-NH2),HC50 at 1 h,[10],> 256 µM
same,MIC,Staphylococcus aureus [11],32 µM
same,MIC,Bacillus subtilis [12],8 µM
same,MIC,Escherichia coli [13],16 µM
same,MIC,Pseudomonas aeruginosa,8 µM
same,MIC,Klebsiella pneumoniae,128 µM
same,HC50 at 1 h,[14],> 256 µM
CCCCCCCCCCC(=O)NCC(=O)N[C@@H](CC(C)C)C(=O)N[C@@H](CC(C)C)C(=O)N(C)[C@@H](CCCCN)C(=O)N[C@@H](CCCNC(=N)N)C(=O)N[C@H](C(=O)N(C)[C@@H](CCCCN)C(=O)N[C@H](C(=O)N[C@@H](CC(C)C)C(=O)N[C@@H](CC(C)C)C(N)=O)[C@@H](C)O)[C@@H](C)CC (Undecanoyl-GLL[NMeK]RI[NMeK]TLL-NH2),HC50 at 1 h,[10],> 256 µM
same,MIC,Staphylococcus aureus [11],32 µM
same,MIC,Bacillus subtilis [12],4 µM
same,MIC,Escherichia coli [13],32 µM
same,MIC,Pseudomonas aeruginosa,8 µM
same,MIC,Klebsiella pneumoniae,> 128 µM
same,HC50 at 1 h,[14],> 256 µM
